In brackets after ≈: the same amount, converted by molar mass.

The conditions of the data set: buffer; pH 7.4; 200.0 µM.
For the compound `CC(=O)N1CCN(C(=O)c2cc3ccccc3o2)CC1`, the solubility (kinetic) is more than 40.8 µg/mL. In the case of `O=c1[nH]c(CSc2cccc[n+]2[O-])nc2ccccc12`, the kinetic solubility was more than 42.8 µg/mL. The value for `CN(C)c1ncc([N+](=O)[O-])cc1C(F)(F)F` was 5.2 µg/mL (≈ 22.1 µM); that for `Cc1nc(SCC(=O)N2CCOCC2)c2c(C)c(C)sc2n1` was 49.1 µg/mL (≈ 145 µM); that for `CC1(C(=O)Nc2ccc3c(c2)OCO3)CC1(Cl)Cl` (centres undefined) was more than 43.2 µg/mL. Compound `Cc1ccccc1OCCn1cc(C(=O)O)c2ccccc21` gave a solubility (kinetic) of more than 44.3 µg/mL.

In the case of `CC1CCN(Cc2cc(=O)oc3cc(O)c(Cl)cc23)CC1`, the solubility (kinetic) is more than 46.2 µg/mL. For the compound `CC(C)CN(Cc1cc(=O)oc2cc3c(cc12)CCCC3)CC(C)C`, the solubility (kinetic) turned out to be 1.1 µg/mL (≈ 3.22 µM). `Cc1c(C=O)c2ccccn2c1C(=O)c1ccc(Cl)c([N+](=O)[O-])c1`: the solubility (kinetic) was 1.6 µg/mL (≈ 4.67 µM). Take `CS(=O)(=O)Oc1ccc2c(c1)O/C(=C\c1cccnc1)C2=O`: the kinetic solubility turned out to be 5 µg/mL (≈ 15.8 µM).

In turn, `COC1Cc2ccccc2N(C(N)=O)c2ccccc21` (centres undefined) yielded a solubility (kinetic) of more than 40.2 µg/mL. Take `Cc1cccc(Cn2c(-c3ccc[nH]c3=O)nc3ccccc32)c1`: the solubility (kinetic) worked out at 36.7 µg/mL (≈ 116 µM). The value for `CC(=O)N(/C=C1\SC(=S)N(c2ccccc2)C1=O)c1ccccc1` was 10 µg/mL (≈ 28.2 µM); that for `O=C1CN(C(=O)COC(=O)Cc2ccccc2)c2ccccc2N1` was more than 48.7 µg/mL; that for `COCCOC(=O)C1=C(C)NC(=O)NC1c1ccco1` (centres undefined) was more than 42 µg/mL. `COc1ccc(S(=O)(=O)Nc2c(C)nn(C)c2C)cc1Br` showed a solubility (kinetic) of more than 56.1 µg/mL. The compound `CCOc1ccc(NS(=O)(=O)c2cc(C)c(C)cc2C)cc1` showed a kinetic solubility of 10.2 µg/mL (≈ 31.9 µM). Compound `CN(C)CCNC(=O)C(=O)Nc1cc2c3c(c1)CCN3C(=O)CC2` gave a solubility (kinetic) of more than 49.6 µg/mL. The value for `COCC1CCCN(C(=O)c2ccc3oc(C(C)C)nc3c2)C1` (centres undefined) was 42.2 µg/mL (≈ 133 µM); that for `CNC(=O)NC(=O)COc1c(F)c(F)cc(F)c1F` was 38.2 µg/mL (≈ 136 µM). In turn, `O=C(Nc1ccc(C(=O)N2CCCCC2)cc1)c1cccs1` showed a solubility (kinetic) of 35 µg/mL (≈ 111 µM).

In the case of `Cn1c(=O)c2ccccc2n(Cc2cccc(F)c2)c1=O`, the solubility (kinetic) worked out at 3.6 µg/mL (≈ 12.7 µM). On to `CC(NS(=O)(=O)c1ccccc1Cl)C1CC2CCC1C2` (centres undefined), for which the solubility (kinetic) amounted to 1.1 µg/mL (≈ 3.5 µM). Consider `COc1ccc([N+](=O)[O-])cc1NC(=O)COC(=O)c1ccccn1`, for which the solubility (kinetic) is 20.9 µg/mL (≈ 63.1 µM).

Regarding `COc1ccc(NC(=O)c2ccc3ccccc3c2)cc1`, the solubility (kinetic) is less than 0.6 µg/mL. `CCCC(C(=O)OCCN(CC)CC)(c1ccccc1)c1ccccc1.Cl` came in with a solubility (kinetic) of 47.4 µg/mL. Compound `Cc1ccc(S(=O)(=O)N2CCOCC2)cc1NC(=O)CNCc1ccc(Cl)cc1Cl` yielded a solubility (kinetic) of 5.4 µg/mL (≈ 11.4 µM). The compound `O=c1c2ccccc2nc2n1C(CSc1ccc(F)cc1)CS2` (centres undefined) returned a kinetic solubility of more than 51.7 µg/mL. The value for `O=C(/C=C/Sc1ccc(C(F)(F)F)cn1)c1ccccc1` was less than 0.7 µg/mL.

In the case of `CCCc1ccc(S(=O)(=O)NCC2CCCN2CC)cc1` (centres undefined), the kinetic solubility was 31 µg/mL (≈ 99.9 µM). For the compound `CCCC(=O)Nc1nc(-c2ccc(Cl)s2)cs1`, the solubility (kinetic) was 1.5 µg/mL (≈ 5.23 µM). This solubility kinetic is about 21-fold lower than that of the compound before. Next, `COc1ccc(N2C(=O)CCC2(C(N)=O)c2ccccc2)cc1` (centres undefined): more than 46.6 µg/mL. Turning to `COC(=O)c1ccc(/C=C2\Oc3ccccc3NC2=O)cc1`, the solubility (kinetic) is 1 µg/mL (≈ 3.39 µM). Regarding `Cc1ccc(NC(=O)C2CCN(C(=O)c3cccs3)CC2)cc1`, the solubility (kinetic) is more than 49.3 µg/mL. For `C/C(=N/OC(=O)c1ccccc1Br)c1ccc(C)cc1`, the solubility (kinetic) amounted to 1.5 µg/mL (≈ 4.52 µM). With `O=C(CSc1ncccc1C(=O)O)NC1CCCCCCC1`, the solubility (kinetic) came out at 47.3 µg/mL (≈ 147 µM). The value for `O=C(c1ccc(F)cc1)N1CCCC(C(=O)N2CCCCC2)C1` (centres undefined) was more than 47.8 µg/mL; that for `NC1=NC(=O)CC(C(=O)Nc2cccc3ccccc23)S1` (centres undefined) was more than 44.9 µg/mL. `Cc1cccc(-n2c(=O)c3c(C)c(C)sc3n(CC(N)=O)c2=O)c1` yielded a kinetic solubility of more than 51.5 µg/mL.

With `OC(CNCCc1c[nH]c2ccccc12)c1ccccc1` (centres undefined), the kinetic solubility was 37 µg/mL (≈ 132 µM). `S=C1Nc2ccccc2Sc2ccccc21` returned a kinetic solubility of 1 µg/mL (≈ 4.11 µM). Take `O=C(Oc1ccc(C(=S)N2CCOCC2)cc1)c1ccccc1F`: the kinetic solubility worked out at 36.6 µg/mL (≈ 106 µM). With `Cc1cccn2cc(CCNS(=O)(=O)c3cccs3)nc12`, the kinetic solubility amounted to 45.6 µg/mL (≈ 142 µM). `Cc1ccc(C)c(OC(=O)c2cccnc2Cl)c1C`: the kinetic solubility came to 14.8 µg/mL (≈ 53.7 µM).

In the case of `COc1cccc(NC(=O)NC2CCCCCCC2)c1`, the solubility (kinetic) was 5.2 µg/mL (≈ 18.8 µM). The compound `Cc1ccc(N2C(=O)c3ccccc3C(C)(C)C2=O)cc1` showed a kinetic solubility of 12.8 µg/mL (≈ 45.8 µM). `Cc1ccc(N(CC(=O)Nc2cc(C)ccc2C)S(C)(=O)=O)cc1` displayed a kinetic solubility of 33.7 µg/mL (≈ 97.3 µM). `Cc1ccc(CSc2nc3ccccc3c(=O)n2C)cc1` gave a kinetic solubility of less than 0.3 µg/mL. As for `CC(C)CC(=O)N1CCN(C(=O)c2ccc(F)cc2)CC1`, the kinetic solubility was more than 43.9 µg/mL. `O=C(Nc1ncccc1O)c1c(O)c2ccccc2[nH]c1=O` returned a solubility (kinetic) of 11.1 µg/mL (≈ 37.3 µM).

In the case of `O=C1C(Cl)=C(N2CCCCCC2)C(=O)N1c1ccc(Br)cc1`, the kinetic solubility stood at 15.1 µg/mL (≈ 39.4 µM). `O=C(O)C1CCN(S(=O)(=O)c2cccs2)CC1` showed a kinetic solubility of more than 41.3 µg/mL.

`Cc1ccc(S(=O)(=O)N(C)C)cc1NC(=O)C(C)OC(=O)C1CCC1` (centres undefined) displayed a solubility (kinetic) of more than 55.3 µg/mL.

With `CCN(CC)c1ccc(CNc2nc3ccccc3n2C(C)C)cc1`, the solubility (kinetic) was determined as 0.3 µg/mL (≈ 0.892 µM). In turn, `Cc1ccccc1CNC(=O)COc1ccccc1` yielded a solubility (kinetic) of more than 38.3 µg/mL. Next, `CCN(CC)CCNS(=O)(=O)c1ccc2c3c(cccc13)C(=O)N2`: more than 52.1 µg/mL; `CCCCC(=O)Nc1cc(-c2nc3ncccc3o2)ccc1C`: 4 µg/mL (≈ 12.9 µM). The value for `Cc1ccsc1C(=O)OCC(=O)N(C)C1CCCCC1` was more than 44.3 µg/mL. In turn, `CC1(C)CC2(CCCN(C(=S)Nc3ccccc3)C2)CCO1` (centres undefined) registered a kinetic solubility of 46.4 µg/mL (≈ 146 µM). `COc1ccc(C(C)=O)cc1COc1ccccc1[N+](=O)[O-]` registered a kinetic solubility of less than 0.6 µg/mL. Next, `CC(C)CN(CC(C)C)C(=O)Nc1ccc(F)cc1F`: 33.2 µg/mL (≈ 117 µM); `CC(=O)C1=C(O)C(=O)N(c2ccc(O)cc2)C1c1ccc(Cl)cc1` (centres undefined): 42.6 µg/mL (≈ 124 µM); `Cc1cc(C)cc(NC(=S)NC(=O)Cc2ccccc2)c1`: 0.5 µg/mL (≈ 1.68 µM).

With `O=C(COC(=O)/C=C/c1ccc(Cl)cc1Cl)NCc1ccco1`, the kinetic solubility was 5.9 µg/mL (≈ 16.7 µM). The compound `COC(=O)CCN(C(=O)c1cccc([N+](=O)[O-])c1)c1ccccn1` had a solubility (kinetic) of more than 49.4 µg/mL.

Compound `CCCCN(CC)Cc1c(O)ccc2c3c(c(=O)oc12)CCC3` showed a solubility (kinetic) of 44 µg/mL (≈ 139 µM).

Compound `COc1ccccc1OCc1nc(C#N)c(N2CCCC2)o1` came in with a kinetic solubility of 39.1 µg/mL (≈ 131 µM).

Regarding `CC(=O)c1cccc(OCC(=O)N2CCCc3ccccc32)c1`, the kinetic solubility turned out to be 44.6 µg/mL (≈ 144 µM).

`CCC(=O)Nc1ccc2c(c1)ncn2-c1ccc(C)cc1` gave a solubility (kinetic) of more than 41.9 µg/mL.

Consider `COc1ccc(/C=N/OC(=O)c2ccc(Cl)cc2)c(Cl)c1OC`, for which the solubility (kinetic) is less than 0.8 µg/mL. The value for `O=C(NCC1CCCCC1)c1cccc(Br)c1` was 2.2 µg/mL (≈ 7.43 µM); that for `CN1CCN(C(=S)c2ccc(-c3cccc([N+](=O)[O-])c3)o2)CC1` was 43.3 µg/mL (≈ 131 µM).

On to `COCCn1c(C)cc(C(=O)COC(=O)c2ccc(S(=O)(=O)N(C)C)cc2)c1C`, for which the kinetic solubility came to 2.4 µg/mL (≈ 5.68 µM). Compared with the last compound, the solubility kinetic is about 18-fold lower. The value for `CC1(C)CC(=O)N(c2cccc(Cl)c2)C(=O)C1` was more than 37.8 µg/mL.

The compound `COc1ccc(Cl)cc1NS(=O)(=O)c1cccc(C(=O)NC2CC2)c1` came in with a solubility (kinetic) of more than 57.1 µg/mL.

With `Cc1ccc(C(=O)NC(=S)N(C)C2CCCCC2)cc1Br`, the solubility (kinetic) worked out at 1.1 µg/mL (≈ 2.98 µM). As for `COc1ccc(S(=O)(=O)Nc2ncccc2C)c2ccccc12`, the kinetic solubility was 37.6 µg/mL (≈ 114 µM). `Cc1cc(C)nc(NC(=S)Nc2cccc(F)c2)c1` came in with a kinetic solubility of less than 0.2 µg/mL.

`O=C(/C=C/c1ccc(-c2ccccc2)cc1)NCc1cccnc1`: the solubility (kinetic) was less than 0.3 µg/mL. Take `COc1ccc(CNC(=O)C2CCCC2)cc1`: the solubility (kinetic) turned out to be 28.6 µg/mL (≈ 123 µM). `Cc1cccc(-n2c(C)cc(/C=C3\NC(=O)NC3=O)c2C)c1` gave a solubility (kinetic) of 1.8 µg/mL (≈ 6.09 µM). This solubility kinetic is about 16-fold lower than that of the compound before.

In the case of `O=C(CN1C(=O)NC2(CCCC2)C1=O)Nc1ccc(Cl)cc1F`, the kinetic solubility is 49.8 µg/mL (≈ 147 µM).

The compound `COc1ccc(NS(=O)(=O)c2cn(C)cn2)c(OC)c1` registered a kinetic solubility of more than 44.6 µg/mL. In turn, `CN(C)c1ccc(/C=N/O)cc1` showed a kinetic solubility of more than 24.6 µg/mL. Next, `Nc1c(C(=O)OCC(=O)NCc2ccccc2)[nH]c(=O)[nH]c1=O`: 28.9 µg/mL (≈ 90.8 µM); `COc1cccc(C(=O)NCCNC(=O)c2ccccn2)c1`: more than 44.9 µg/mL. `Cc1c(C)c2ccc(OCC(=O)Nc3ccccn3)cc2oc1=O`: the solubility (kinetic) is less than 0.3 µg/mL.

Turning to `CC1CCCC(NC(=O)COC(=O)COc2ccccc2Cl)C1C` (centres undefined), the kinetic solubility came out at 31.1 µg/mL (≈ 87.9 µM). The value for `CSc1ncc(CO)n1Cc1ccccc1` was more than 35.1 µg/mL; that for `Cc1cccc(NC(=O)CN2CCCCCC2)c1` was 25.8 µg/mL (≈ 105 µM).

In turn, `CN(C)C(=O)c1ccc(NC(=O)COC(=O)C2(c3ccccc3)CCCC2)cc1` gave a kinetic solubility of 24.3 µg/mL (≈ 61.6 µM). This solubility kinetic and that of the compound before are within 1.5-fold of each other. Take `Cc1nnc(SCC(=O)Nc2ccc(F)cc2)n(N)c1=O`: the kinetic solubility is more than 46.4 µg/mL. In the case of `CCCCOc1ccc(C(=O)N2CCNC(=O)C2)cc1`, the solubility (kinetic) was more than 41.5 µg/mL. `Cc1ccc(Nc2ncnc3sccc23)c(C)c1`: the solubility (kinetic) is more than 38.3 µg/mL. For the compound `COc1ccc(CC(=O)Nc2cc(S(=O)(=O)N3CCOCC3)ccc2N2CCCC2)cc1OC`, the solubility (kinetic) was more than 73.4 µg/mL. On to `Cc1ccccc1CC(=O)N1CC(C)OC(C)C1` (centres undefined), for which the solubility (kinetic) is more than 37.1 µg/mL. The value for `CC(=O)CC(c1ccccc1)S(=O)(=O)c1ccc([N+](=O)[O-])cc1` (centres undefined) was more than 50 µg/mL; that for `O=C(CN1C(=O)NC2(CCc3ccccc32)C1=O)NCc1cccc(C(F)(F)F)c1` (centres undefined) was 55.2 µg/mL (≈ 132 µM); that for `Cc1nnc(NC(=O)c2ccc(Br)o2)s1` was more than 43.2 µg/mL.

The compound `Cc1ccc(Nc2nc(-c3ccccc3)cs2)nc1` registered a kinetic solubility of less than 0.2 µg/mL. `S=C(NCc1ccccc1)NC1CCSc2ccccc21` (centres undefined) gave a solubility (kinetic) of 1.2 µg/mL (≈ 3.82 µM). The value for `Cc1[nH]c2ccccc2c1-c1csc(N)n1` was 28.1 µg/mL (≈ 123 µM); that for `CN(C)S(=O)(=O)c1ccc(Cl)c(NC(=O)COC(=O)CCC2CCCCC2)c1` was 7.3 µg/mL (≈ 16.9 µM); that for `CN(C)c1ccc(-n2cccc2)cc1` was 1.1 µg/mL (≈ 5.91 µM).

What is called kinetic solubility is solubility judged after dilution from a stock solution rather than from solid.

The record behind these values is PubChem BioAssay AID1996.
